From patent publication US20180332847A1, “ANTIMICROBIAL METAL CARBOXYLATE-BENZISOTHIAZOLINONE MIXTURES” (Troy Corporation, priority 2017, published 2018)
Where “and” joins values, the source holds several entries; their conditions need not be identical. Equal entries are not always repeated.

Tests used:
Type in all cases: cell-based
[1] = system: Pseudomonas aeruginosa; experiment: Minimum Inhibitory Concentration (MIC) by spiral plater / spiral gradient endpoint against Pseudomonas aeruginosa; settings: quantity of BIT used alone that gives the desired effect, Pseudomonas aeruginosa
Procedure: (§1) Synergistic Index=Qa/QA+Qb/QB [Equation No. 1] • where Qa=the quantity of component A used in a binary mixture that gives the desired effect • QA=the quantity of component A which when used alone gives the desired effect • Qb=the quantity of component B used in a binary mixture that gives the desired effect • QB=the quantity of component B which when used alone gives the desired effect
(§2) Minimum Inhibitory Concentration (“MIC”) for each of the antimicrobial compositions was determined against a test microbe, which in this case was a spore suspension of the fungus Alternaria alternata, with the aid of an Autoplate 4000 spiral plater that is commercially available from Spiral Biotech, Inc., Norwood, Mass., and its accompanying spiral gradient endpoint software (hereinafter referred to as “the SGE software”). The spiral plater automates the normal serial dilution method for determining MICs. Although the details of the SGE software are held confidentially by Spiral Biotech, Inc., they are believed to consistent with the principles set forth in “Measurement of MICs of antibacterial agents by spiral gradient endpoint compared with conventional dilution method” J. H. Paton, H. A. Holt, and M. J. Bywater—Int. J. Exp. Clin. Chemother, 1990.
(§3) The spiral plater automatically applied 54.3 micro-liters of each antimicrobial composition of interest to the surface of 150 millimeter malt agar plates using an exponential application gradient. The concentration of the antimicrobial concentration was greatest near the center of the Petri plates and decreased toward the edges. Antimicrobial composition gradients were allowed to air dry at room temperature for 1 to 4 hours at 23° C. before inoculation with test microbe. Spiral gradient plates were inoculated by streaking with cotton swabs that had been soaked in test microbe spore suspension. Streaks were applied in a radial pattern, using a paper template generated by the SGE software to guide the application. Eight radii were inoculated per Petri plate. Each radius is considered as one replicated observation.
(§4) Inoculated spiral gradient plates were incubated for 48 hours in an incubator at 28° C. Visible growth of the test microbe developed along the radial streaks and ended where the concentration of the antimicrobial composition was sufficient to prevent growth. This growth endpoint value (expressed in mm as measured from center point of the Petri plate) was used to calculate MIC for the mixture, expressed as parts per million.
Utilizing the procedure described above in Example 1, Minimum Inhibitory Concentration (“MIC”) for each of the antimicrobial compositions was determined against a test microbe, which in this case was a spore suspension of the bacterium Pseudomonas aeruginosa. Several antimicrobial compositions containing calcium gluconate, BIT, or both in water were investigated, as shown below in Table 7.
Utilizing the procedure described above in Example 1, Minimum Inhibitory Concentration (“MIC”) for each of the antimicrobial compositions was determined against a test microbe, which in this case was a […] Pseudomonas aeruginosa. Several antimicrobial compositions containing calcium glycerate, BIT, or both in water were investigated, as shown below in Table 13.
Utilizing the procedure described above in Example 1, Minimum Inhibitory Concentration (“MIC”) of certain antimicrobial compositions was determined against a test microbe, which in this case was a spore suspension of the bacterium Pseudomonas aeruginosa. Several antimicrobial compositions containing zinc gluconate, BIT, or both in water were investigated, as shown below in Table 19.

[2] = system: Saccharomyces cervisiae; experiment: Minimum Inhibitory Concentration (MIC) by spiral plater / spiral gradient endpoint against Saccharomyces cervisiae; settings: quantity of BIT used alone that gives the desired effect; calcium gluconate-BIT series; Saccharomyces cervisiae
Procedure: as §1
Minimum Inhibitory Concentration (“MIC”) for each of the antimicrobial compositions was determined against a test microbe, which in this case was a spore suspension of the fungus Alternaria alternata, with the aid of an Autoplate 4000 spiral plater that is commercially available from Spiral Biotech, Inc., Norwood, Mass., and its accompanying spiral gradient endpoint software (hereinafter referred to as “the SGE software”). […]
(§5) Inoculated spiral gradient plates were incubated for 48 hours in an incubator at 28° C. […] This growth endpoint value (expressed in mm as measured from center point of the Petri plate) was used to calculate MIC for the mixture, expressed as parts per million.
Utilizing the procedure described above in Example 1, Minimum Inhibitory Concentration (“MIC”) for each of the antimicrobial compositions was determined against a test microbe, which in this case was a spore suspension of the yeast Saccharomyces cervisiae. […]

[3] = system: Alternaria alternata; experiment: Minimum Inhibitory Concentration (MIC) by spiral plater / spiral gradient endpoint against Alternaria alternata
Procedure: as §1, §2
Spore suspensions for the test microbe were prepared by growing Alternaria alternata on a Difco malt agar slant in an incubator for 1 week at 28° C. Spores were loosened by adding a small amount of buffer solution at pH 7.0 and scraping with a sterile nichrome wire loop. This process was repeated twice. The buffer solution included phosphate buffer and magnesium chloride, and was obtained commercially from Thomas Scientific Company, as Lot #023-0703.
Loosened spores were removed from the slant by aseptically pouring them into a sterile bottle containing 30 ml of the buffer solution and a volume of approximately 40 ml of 6 mm diameter borosilicate glass beads. The bead bottle was shaken to disperse the spores and adjusted to a final liquid volume of 50 ml. For use as a test inoculum, spore density was adjusted in distilled water blanks to that of a 0.5 McFarland nephelometer standard.
as §3, §4
Utilizing the procedure described above in Example 1, Minimum Inhibitory Concentration (“MIC”) for each of the antimicrobial compositions was determined against a test microbe, which in this case was a spore suspension of the […] Alternaria alternata.

[4] = system: Staphylococcus aureus; experiment: Minimum Inhibitory Concentration (MIC) by spiral plater / spiral gradient endpoint against Staphylococcus aureus
[5] = system: Candida albicans; experiment: Minimum Inhibitory Concentration (MIC) by spiral plater / spiral gradient endpoint against Candida albicans
Procedure: as §1, §2, §3, §4
Utilizing the procedure described above in Example, Minimum Inhibitory Concentration (“MIC”) for each of the antimicrobial compositions was determined against a test microbe, which in this case was a spore suspension of the yeast Candida albicans., as described above in Example 1. Several antimicrobial compositions containing calcium gluconate, BIT, or both in water were investigated, as shown below in Table 3
Utilizing the procedure described above in Example 1, Minimum Inhibitory Concentration (“MIC”) for each of the antimicrobial compositions was determined against a test microbe, which in this case was a spore suspension of the yeast Candida albicans. Several antimicrobial compositions containing calcium glycerate, BIT, or both in water were investigated, as shown below in Table 11.
Utilizing the procedure described above in Example 1, Minimum Inhibitory Concentration (“MIC”) for antimicrobial compositions was determined against a test microbe, which in this case was a spore suspension of the yeast Candida albicans. Several antimicrobial compositions containing calcium glycerate, BIT, or both in water were investigated, as shown below in Table 23.
Utilizing the procedure described above in Example 1, Minimum Inhibitory Concentration (“MIC”) for each of the antimicrobial compositions was determined against a test microbe, which in this case was a spore suspension of the fungus Candida Albicans.

[6] = system: Escherichia coli; experiment: Minimum Inhibitory Concentration (MIC) by spiral plater / spiral gradient endpoint against Escherichia coli
Procedure: as §1, §2
The spiral plater automatically applied 54.3 micro-liters of each antimicrobial composition of interest to the surface of 150 millimeter malt agar plates using an exponential application gradient. The concentration of the antimicrobial concentration was greatest near the center of the Petri plates and decreased toward the edges. […]
as §5
Utilizing the experimental procedure described above in Example 1, the MIC against Escherichia coli of several antibacterial compositions containing zinc gluconate, BIT, or both in water were determined.

How did the QB ([1]; calcium gluconate-BIT series) turn out when `O=c1[nH]sc2ccccc12` [BIT, 1,2-benzisothiazol-3(2H)-one] was run?
Its QB is 85 ppm.

And the QB ([1]; calcium glycerate-BIT series)?
Its QB is 27.5 ppm.

What about the QB ([1]; zinc gluconate-BIT series) of the same compound?
The QB was 661 ppm.

And the QB [2]?
The QB was 61 ppm.

And the QB ([3]; MIC of BIT alone for Alternaria alternata, used for SI (zinc ethylhexanoate series))?
Its QB is 13 ppm.

What about the QB ([3]; MIC of BIT alone for Alternaria alternata, used for SI (zinc glycerate series)) of the same compound?
The QB was 8.3 ppm.

And the QB ([3]; quantity of BIT used alone that gives the desired effect, calcium ethylhexanoate-BIT series, Alternaria alternata)?
Its QB is 13 ppm.

What about the QB ([3]; quantity of BIT used alone that gives the desired effect, calcium gluconate-BIT series, Alternaria alternata) of the same compound?
Its QB is 13 ppm.

What about the QB ([3]; quantity of BIT used alone that gives the desired effect, calcium glycerate-BIT series, Alternaria alternata) of the same compound?
Its QB is 85 ppm.

And the “ppm of BIT alone providing the same inhibition” value ([3]; zinc ethylhexanoate-BIT series, Alternaria alternata)?
The value was 13 ppm.

And the “ppm of BIT alone providing the same inhibition” value ([3]; zinc glycerate-BIT series, Alternaria alternata)?
The value was 8.3 ppm.

And the QB ([4]; MIC of BIT alone for Staphylococcus aureus, used for SI)?
The QB was 16 ppm.

What about the “ppm of BIT alone providing the same inhibition” value ([4]; zinc glycerate-BIT series, Staphylococcus aureus) of the same compound?
Its value is 16 ppm.

And the QB ([5]; MIC of BIT alone for Candida albicans (average of Trials 1, 2), used for SI (zinc ethylhexanoate series))?
The QB was 19 ppm.

What about the QB ([5]; MIC of BIT alone for Candida albicans, used for SI (zinc glycerate series)) of the same compound?
Its QB is 13 ppm and 16 ppm.

And the QB ([5]; quantity of BIT used alone that gives the desired effect, calcium gluconate-BIT series, Candida albicans)?
The QB was 23 ppm.

What about the QB ([5]; quantity of BIT used alone that gives the desired effect, calcium glycerate-BIT series, Candida albicans) of the same compound?
Its QB is 85 ppm.

And the “ppm of BIT alone providing the same inhibition” value ([5]; zinc ethylhexanoate-BIT series, Candida albicans)?
The value was 19 ppm.

And the “ppm of BIT alone providing the same inhibition” value ([5]; zinc glycerate-BIT series, Candida albicans)?
Its value is 13 ppm.

What about the QB ([6]; MIC of BIT alone for Escherichia coli (average of Trials 1, 2), used for SI) of the same compound?
Its QB is 136 ppm.

And the “ppm of BIT alone providing the same inhibition” value ([6]; zinc gluconate-BIT series, Escherichia coli)?
The value was 136 ppm.
